Assay results from patent publication US12410211B2, “V1A receptor partial agonist and method of use” (PharmaIN Corporation, priority 2020, dated 2025).
Where a SMILES comes first, the peptide text is derived from it. Bridges are numbered along the chain shown (N, C = ends).

What was measured:
[1] = Acute diuretic activity of Terlipressin, Tolvaptan and combinations in Wistar rats (Example 5); type: in vivo
Description: The animals were then treated with Terlipressin (Bachem, Torrance CA), Tolvaptan (Fisher Scientific, Waltham, MA) and combination of the two compounds at various concentrations administered subcutaneously (n=4). Test articles were Terlipressin 0.05 mg/Kg and 0.15 mg/Kg, Tolvaptan 0.3 mg/Kg, and 1.0 mg/Kg, Terlipressin 0.05 mg/Kg+Tolvaptan 0.3 mg/Kg, Terlipressin 0.05 mg/Kg+Tolvaptan 1.0 mg/Kg, Terlipressin 0.15 mg/Kg+Tolvaptan 0.3 mg/Kg, and Terlipressin 0.15 mg/Kg+1.0 mg/Kg. Furosemide (Fisher Scientific, Waltham, MA) was used as positive control and dosed at 20 mg/kg via oral gavage. Control dosed vehicle group (9% tween 80; Fisher Scientific, Waltham MA) administered subcutaneously was included and the resulting data was subtracted from individual test article data. After the dose, animals were placed in the metabolic cage (Tecniplast; Province of Varese, Italy) and urine was collected and measured at 2, 4 and 8 hours after the dosing of test articles. Urine volumes were divided by the body weight (pre-dose) times 100 to express in ml/100 g body weight.

[2] = Acute diuretic activity of Tolvaptan and peptides of Formula (II) and (IV) in Wistar rats (Example 6); type: in vivo
Description: In this study, Male Wistar Rats (˜8 weeks; Envigo; Somerset, NJ) were fasted overnight (18 hours; free access to water) followed by treatment with saline at 20 ml/Kg via oral gavage to have a uniform hydration of all the animals. The animals were then treated with various concentrations of test articles administered subcutaneously (n=4) (Table 5). Control dosed vehicle group (9% tween 80; Fisher Scientific, Waltham MA) administered subcutaneously was included and the resulting data was subtracted from individual test article data. After the dose, animals were placed in the metabolic cage (Tecniplast; Province of Varese, Italy) and urine was collected and measured at 2, 4 and 8 hours after the dosing of test articles. Urine volumes were divided by the body weight (pre-dose) times 100 to express in ml/100 g body weight. […] However, at any ratio, a tolvaptan dose of about 0.3 mg/Kg (i.e., 0.3+0.05 mg/Kg) administered in rats (allometrically equivalent to about 2-7 mg/human depending on persons weight) is an ideal dose that when combined with the composition of the present disclosure provides greater than 50% of the sum of individual diuretic effect administered alone. Low dose of 0.3 mg/Kg of subcutaneous tolvaptan is considered to be 13-fold below the effective safe human dose thus providing additional advantage to patients with liver disease. This can increase mean arterial blood pressure (MAP) which is a V1a effect caused by composition of the present disclosure while maintaining significant (at least 50% of the sum of individual diuretic effect administered alone) of both.

V1a receptor = molecular target: T1, V1a receptor (Homo sapiens, UniProt P37288); experiment: V1a Human Vasopressin GPCR Cell Based Agonist Calcium Flux Assay
T1 construct: host or cells: CHO cells
T1 sequence (P37288 whole entry): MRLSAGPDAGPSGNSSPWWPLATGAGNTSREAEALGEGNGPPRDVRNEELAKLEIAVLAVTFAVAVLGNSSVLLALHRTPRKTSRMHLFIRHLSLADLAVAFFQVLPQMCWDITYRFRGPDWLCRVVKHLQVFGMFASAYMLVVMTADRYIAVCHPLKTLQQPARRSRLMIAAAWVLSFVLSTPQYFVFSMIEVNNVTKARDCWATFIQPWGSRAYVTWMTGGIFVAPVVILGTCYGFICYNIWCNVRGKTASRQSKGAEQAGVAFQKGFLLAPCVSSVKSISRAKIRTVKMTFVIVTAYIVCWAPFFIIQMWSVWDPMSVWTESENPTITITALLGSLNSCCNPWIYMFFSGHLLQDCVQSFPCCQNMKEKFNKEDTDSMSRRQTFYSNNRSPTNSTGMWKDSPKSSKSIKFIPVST

[3] = cited from earlier work
[4] = Therapeutic index (NOAEL/NOEL): paleness, lethargy, ataxia observation in Sprague-Dawley rats (Example 7); type: in vivo
Method in brief: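 Male Sprague-Dawley rats, 8–10 weeks, under isoflurane (n=3 or 6), dosed IV or SC with test articles. Paleness judged by ear colour beside untreated controls; lethargy and ataxia scored by observation. Index expressed as NOAEL/NOEL ratio.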

[5] = Telemetric evaluation of portal vein pressure in rats with bile duct ligation (Example 9); type: in vivo, Sprague Dawley rats; conditions: BDL rats n = 4, 41 μg/kg intravenous bolus
Description: For this study, animals (Sprague Dawley rats (240-300 g at surgery from Charles River Laboratory) were maintained at room temperatures (20 to 22° C.) with 14-hour light, 10-hour dark cycle when not performing study procedures. The mean portal vein pressure (MPVP) reduction efficacy of a peptide of Formula ([…] [SEQ ID NO. 13]; Mpa and C are disulfide bonded; represented as TA-1) was compared to terlipressin in telemetered male with Bile Duct Ligation (BDL) and Sham surgery. On Study Day 1, rats received bile duct ligation surgery and telemetry implantation. The BDL group (n=4) had two stands of silk suture tightened and tied to occlude the bile duct; the sham group (n=3) had sutures loosely tied around the bile duct so that no occlusion occurred. After recovery from surgery, all rats had their portal vein pressure monitored continuously via telemetry until Day 22. […] Terlipressin was administered through intravenous bolus into a lateral tail vein on Day 20 and 21. All animals were dosed under manual restraint. Systolic portal vein pressure and diastolic portal vein pressure were measured to calculate the Mean Portal Vein Pressure ([…] was analyzed by averaging 5 minute intervals for the first 4 hours after dose and thereafter averaging 1 hour intervals after dose until 24 hours. […] Telemetric evaluation of […] [SEQ ID NO. 13] and Terlipressin on portal vein pressure in rats with bile duct ligation. The animal room temperatures were set to maintain 20 to 22° C. A 14-hour light, 10-hour dark cycle was implemented unless interrupted by study procedures. Efficacy was assessed by evaluating mean portal vein pressure (MPVP) at different concentrations of Formula 1 and Terlipressin in telemetered male Sprague Dawley rats (240-300 g at surgery from Charles River Laboratory) with Bile Duct Ligation (BDL) and Sham surgery. On Study Day 1, rats received bile duct ligation surgery and telemetry implantation. The BDL group (n=4) had two stands of silk suture tightened and tied to occlude the bile duct; the sham group (n=3) had sutures loosely tied around the bile duct so that no occlusion occurred. After recovery from surgery, all rats had their portal vein pressure monitored continuously via telemetry until Day 22. […] Formula 1 was administered at different concentrations subcutaneously on Day 15 to 19, and Day 23; Terlipressin was administered through intravenous bolus into a lateral tail vein on Day 20 and 21. All animals were dosed under manual restraint. Systolic portal vein pressure and diastolic portal vein pressure were measured to calculate the Mean Portal Vein Pressure ([…] was analyzed by averaging 5 minute intervals for the first 4 hours after dose and thereafter averaging 1 hour intervals after dose until 24 hours.

V2 = V2 (Homo sapiens, UniProt P30518); conditions: cited from earlier work
Sequence of V2 (P30518 whole entry): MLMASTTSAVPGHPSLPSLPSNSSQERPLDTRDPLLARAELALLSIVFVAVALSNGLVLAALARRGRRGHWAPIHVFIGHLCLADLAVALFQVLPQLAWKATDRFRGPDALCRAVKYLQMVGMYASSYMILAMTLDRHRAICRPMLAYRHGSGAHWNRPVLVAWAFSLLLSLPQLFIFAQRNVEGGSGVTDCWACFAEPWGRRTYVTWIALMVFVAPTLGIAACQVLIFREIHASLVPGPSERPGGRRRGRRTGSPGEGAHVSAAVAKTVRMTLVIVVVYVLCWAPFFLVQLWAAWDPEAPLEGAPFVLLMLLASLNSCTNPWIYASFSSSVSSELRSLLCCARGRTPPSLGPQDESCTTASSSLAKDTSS

[6] = peptide alone 0.015 mg/kg subcutaneous
[7] = peptide alone 0.05 mg/kg subcutaneous

NS(=O)(=O)c1cc(C(=O)O)c(NCc2ccco2)cc1Cl [Furosemide]
Average mL of Urine per 100 gram body weight 8 hours cumulative (n = 4) minus Vehicle group (Tween 80); (SEM) ([1]; Furosemide 20 mg/kg oral gavage (positive control)): 1.73 (0.22) mL per 100 gram body weight

Cc1ccccc1C(=O)Nc1ccc(C(=O)N2CCCC(O)c3cc(Cl)ccc32)c(C)c1 (stereo not shown) [Tolvaptan]
Average 8 hours cumulative Urine Volume: mL per 100 gram body weight (SEM; n = 4) minus Tween 80 vehicle group ([2]; Tolvaptan 0.3 mg/kg subcutaneous): 0.65 (0.16) mL per 100 gram body weight
Average mL of Urine per 100 gram body weight 8 hours cumulative (n = 4) minus Vehicle group (Tween 80); (SEM) ([1]; Tolvaptan 0.3 mg/Kg subcutaneous): 0.65 (0.16) mL per 100 gram body weight
Average mL of Urine per 100 gram body weight 8 hours cumulative (n = 4) minus Vehicle group (Tween 80); (SEM) ([1]; Tolvaptan 1.0 mg/Kg subcutaneous): 7.29 (0.46) mL per 100 gram body weight

NCCCC[C@H](NC(=O)[C@@H]1CCCN1C(=O)[C@@H]1CSSC[C@H](N)C(=O)N[C@@H](Cc2ccc(O)cc2)C(=O)N[C@@H](Cc2ccccc2)C(=O)N[C@@H](CCC(N)=O)C(=O)N[C@@H](CC(N)=O)C(=O)N1)C(=O)NCC(N)=O [Lysine vasopressin (LVP), Lysine vasopressin, reference compound]
EC50 (V1a receptor; Table 3, CHO cells expressing human V1 receptor, read-out: Estimated V1a EC50 (nM), n = 2): 1.65 nM
Emax (V1a receptor; Table 3, read-out: V1a Highest agonist effect (% of AVP), n = 2): 92.1%
V1a Highest agonist effect (% of AVP); n = 2 (V1a receptor; Table 4): 92.1 % of AVP
plasma half-life ([3]; in vivo): 0.833 h

NCCCC[C@H](NC(=O)[C@@H]1CCCN1C(=O)[C@@H]1CSSCCC(=O)N[C@@H](Cc2ccc(O)cc2)C(=O)N[C@@H](Cc2ccccc2)C(=O)N[C@@H](CCC(N)=O)C(=O)N[C@@H](CC(N)=O)C(=O)N1)C(=O)NCC(N)=O [SEQ ID NO. 32]
Paleness (Duration, hrs; SD) ([4]; S.C., at the Marked adverse effect dose): (4.79 ± 0.08) hrs
Paleness (Duration, hrs; SD) ([4]; S.C., at the Mild adverse effect dose): (4.45 ± 0.26) hrs
Paleness (Duration, hrs; SD) ([4]; S.C., at the NOAEL dose): (3.54 ± 0.11) hrs
Paleness (Duration, hrs; SD) ([4]; S.C., at the NOEL dose): None observed
Highest dose with no-observed effect level or paleness (NOEL) ([4]; S.C., rat): 0.0005 mg/kg
NOAEL/NOEL (therapeutic index) ([4]; S.C., rat): 20
NOAEL ([4]; in vivo, sc, S.C., rat, read-out: Highest dose with no-observed adverse effect level without lethargy (NOAEL)): 0.01 mg/kg
Marked adverse effect (Lowest dose first showed Ataxia) ([4]; rat, in vivo, sc): 0.1 mg/kg
Mild adverse effect (Lowest dose first showed Lethargy) ([4]; rat, in vivo, sc): 0.03 mg/kg
Average 8 hours cumulative Urine Volume: mL per 100 gram body weight (SEM; n = 4) minus Tween 80 vehicle group ([2]; peptide alone 0.005 mg/kg subcutaneous): 0.80 (0.50) mL per 100 gram body weight
Average 8 hours cumulative Urine Volume: mL per 100 gram body weight (SEM; n = 4) minus Tween 80 vehicle group [2, 6]: 0.86 (0.28) mL per 100 gram body weight
Average 8 hours cumulative Urine Volume: mL per 100 gram body weight (SEM; n = 4) minus Tween 80 vehicle group [2, 7]: 0.74 (0.55) mL per 100 gram body weight

NC(=O)CC[C@@H]1NC(=O)[C@H](Cc2ccccc2)NC(=O)[C@H](Cc2ccc(O)cc2)NC(=O)[C@@H](N)CSSC[C@@H](C(=O)N2CCC[C@H]2C(=O)N[C@@H](CCCN=C(N)N)C(=O)NCC(N)=O)NC(=O)[C@H](CC(N)=O)NC1=O [Vasopressin]
excreted through the kidney ([3]; in vivo): 65%
metabolized by liver and kidney vasopressinases ([3]; in vivo): 35%
protein binding ([3]; in vivo): not protein-bound
volume of distribution ([3]; plasma): 0.14 L/kg

Mpa-Tyr-Phe-Gln-Asn-Cys-Pro-Lys(X)a-Gly-NH2; (X)a = (Gly)5 [SEQ ID NO. 33]
Average 8 hours cumulative Urine Volume: mL per 100 gram body weight (SEM; n = 4) minus Tween 80 vehicle group [2, 6]: 1.11 (0.11) mL per 100 gram body weight
Average 8 hours cumulative Urine Volume: mL per 100 gram body weight (SEM; n = 4) minus Tween 80 vehicle group [2, 7]: 1.32 (0.09) mL per 100 gram body weight
Average 8 hours cumulative Urine Volume: mL per 100 gram body weight (SEM; n = 4) minus Tween 80 vehicle group ([2]; peptide alone 0.15 mg/kg subcutaneous): 1.85 (0.20) mL per 100 gram body weight

NCCCC[C@H](NC(=O)[C@@H]1CCCN1C(=O)[C@@H]1CSSC[C@H](NC(=O)CNC(=O)CNC(=O)CN)C(=O)N[C@@H](Cc2ccc(O)cc2)C(=O)N[C@@H](Cc2ccccc2)C(=O)N[C@@H](CCC(N)=O)C(=O)N[C@@H](CC(N)=O)C(=O)N1)C(=O)NCC(N)=O [Terlipressin, reference compound] (H-GGGCYFQNCPKG-NH2; disulfide 4-9)
Paleness (Duration, hrs; SD) ([4]; I.V., at the Marked adverse effect dose): (3.56 ± 0.06) hrs
Paleness (Duration, hrs; SD) ([4]; I.V., at the Mild adverse effect dose): (2.82 ± 0.03) hrs
Paleness (Duration, hrs; SD) ([4]; I.V., at the NOAEL dose): (1.3 ± 0.05) hrs
Paleness (Duration, hrs; SD) ([4]; I.V., at the NOEL dose): None observed
Highest dose with no-observed effect level or paleness (NOEL) ([4]; I.V., rat): 0.005 mg/kg
NOAEL at 24 h ([4]; male, Sprague-Dawley, in vivo, iv, I.V., rat, read-out: Highest dose with no-observed adverse effect level without lethargy (NOAEL)): 0.05 mg/kg
Marked adverse effect (Lowest dose first showed Ataxia) ([4]; rat, in vivo, iv): 1.5 mg/kg
Mild adverse effect (Lowest dose first showed Lethargy) ([4]; rat, in vivo, iv): 0.15 mg/kg
Percent decrease (%) in Mean Portal Vein Pressure (MPVP) from BDL baseline prior to treatment ([5]; Time 1 hr): −23%
Percent decrease (%) in Mean Portal Vein Pressure (MPVP) from BDL baseline prior to treatment ([5]; Time 4 hr): 11.3%
Percent decrease (%) in Mean Portal Vein Pressure (MPVP) from BDL baseline prior to treatment ([5]; Time 7 hr): 10.8%
Percent decrease (%) in Mean Portal Vein Pressure (MPVP) from BDL baseline prior to treatment ([5]; Time 20 hr): 7.3%
Average mL of Urine per 100 gram body weight 8 hours cumulative (n = 4) minus Vehicle group (Tween 80); (SEM) ([1]; Terlipressin 0.05 mg/Kg subcutaneous): 0.70 (0.17) mL per 100 gram body weight
Average mL of Urine per 100 gram body weight 8 hours cumulative (n = 4) minus Vehicle group (Tween 80); (SEM) ([1]; Terlipressin 0.15 mg/Kg subcutaneous): 1.32 (0.23) mL per 100 gram body weight
V2 or anti-diuretic activity (V2): 3%

NC(=O)CC[C@@H]1NC(=O)[C@H](Cc2ccccc2)NC(=O)[C@H](Cc2ccc(O)cc2)NC(=O)CCSSC[C@@H](C(=O)N2CCC[C@H]2C(=O)N[C@H](CCCN=C(N)N)C(=O)NCC(N)=O)NC(=O)[C@H](CC(N)=O)NC1=O [desmopressin]
half-life ([3]; in vivo): 2 h
